Assay results from US11840686B2, “Modulation of prekallikrein (PKK) expression” (Ionis Pharmaceuticals, Inc., priority 2013, dated 2023).
Strand notation (5' to 3'): a small letter for the sugar, then the base; units joined by * are phosphorothioate-linked, units joined directly phosphodiester-linked; [ ] holds rarer units or linkages, { } end groups; capitals alone tell only the bases. e = 2'-O-(2-methoxyethyl) (MOE); [5mC] = 5-methylcytosine; d = 2'-deoxy (DNA)

Tested on: human PKK mRNA
Experiment: Antisense inhibition of human PKK mRNA in HepaRG cells, 5,000 nM (Example 2)
Format: cell-based
How it was run: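 Percent inhibition of PKK mRNA is relative to untreated control, with qRT-PCR (probe set RTS3454) values adjusted to total RNA by RIBOGREEN. Oligonucleotides, fully phosphorothioate 2′-MOE gapmers, were delivered at 5,000 nM by electroporation into 20,000 HepaRG cells/well for about 24 h.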

[1] = human PKK mRNA, HepaRG cells, 5-10-5 motif oligonucleotides targeting SEQ ID NO: 1 and 10
[2] = HepaRG cells, electroporation with 5,000 nM antisense oligonucleotide, approximately 24 hours, PKK mRNA by RT-PCR (RTS3454), relative to untreated control cells, Table 5 experiment
[3] = human PKK mRNA, HepaRG cells, 5,000 nM antisense oligonucleotide, Table 18
[4] = HepaRG cells, electroporation with 5,000 nM antisense oligonucleotide, approximately 24 hours, PKK mRNA by RT-PCR (RTS3454), relative to untreated control cells, Table 6 experiment
[5] = HepaRG cells, 5,000 nM antisense oligonucleotide, 5-10-5 gapmers, Table 17
[6] = HepaRG cells, electroporation, 5,000 nM antisense oligonucleotide, approx. 24 hours, primer probe set RTS3454, relative to untreated control cells, Table 11
[7] = human PKK mRNA in HepaRG cells, 5-10-5 gapmers, Table 14
[8] = HepaRG cells, 5,000 nM antisense oligonucleotide, 5-10-5 gapmers, Table 16
[9] = Table 8, HepaRG cells, electroporation with 5,000 nM antisense oligonucleotide, approx. 24 hours, PKK mRNA by RT-PCR (RTS3454), relative to untreated control cells
[10] = HepaRG cells, electroporation, 5,000 nM antisense oligonucleotide, approx. 24 hours, primer probe set RTS3454, relative to untreated control cells, Table 12
[11] = Table 9 experiment, HepaRG cells, 20,000 cells per well, electroporation with 5,000 nM antisense oligonucleotide, approx. 24 hours, PKK mRNA by RT-PCR (RTS3454), relative to untreated control cells
[12] = Table 10 experiment, HepaRG cells, 20,000 cells per well, electroporation with 5,000 nM antisense oligonucleotide, approx. 24 hours, PKK mRNA by RT-PCR (RTS3454), relative to untreated control cells

Substance: 546911 (eG*eT*e[5mC]*e[5mC]*eT*dA*dT*dA*dA*d[5mC]*dT*dA*dT*dA*dA*e[5mC]*eA*eA*eT*eA; antisense) [compound 546911]
- % inhibition [1]: 52%

Substance: 547285 (antisense eA*e[5mC]*eT*eG*eT*dA*dG*d[5mC]*dA*dA*dA*d[5mC]*dA*dA*dG*eG*eA*eA*eA*eT) [compound 547285]
- % inhibition [2]: 51%

Substance: 548741 (DNA e[5mC]*eT*eG*eT*dA*d[5mC]*dT*dA*dG*dT*dT*dT*d[5mC]*e[5mC]*eT*eA*eT; antisense) [compound 548741]
- % inhibition [3]: 69%

Substance: 548761 (antisense e[5mC]*eT*eA*eA*d[5mC]*dA*dG*dT*dA*dT*d[5mC]*dA*d[5mC]*eT*eG*eT*eA) [compound 548761]
- % inhibition [3]: 49%

Substance: 547342 (antisense eA*eT*eT*eA*eA*dA*dA*dT*dT*dG*dA*d[5mC]*dT*d[5mC]*d[5mC]*eT*e[5mC]*eT*e[5mC]*eA) [compound 547342]
- % inhibition [4]: 66%

Substance: 547071 (eG*e[5mC]*eA*eG*e[5mC]*d[5mC]*d[5mC]*d[5mC]*d[5mC]*d[5mC]*dA*dG*dA*dA*dA*eT*e[5mC]*e[5mC]*e[5mC]*eA; antisense) [compound 547071]
- % inhibition [5]: 27%

Substance: 546357 (antisense eG*e[5mC]*eT*eT*eT*dT*d[5mC]*d[5mC]*dA*dT*d[5mC]*dA*d[5mC]*dT*dG*e[5mC]*eT*e[5mC]*eT*eG) [compound 546357]
- % inhibition [6]: 79%

Substance: 546867 (eA*e[5mC]*e[5mC]*eT*eA*dT*dA*dA*d[5mC]*dT*d[5mC]*dT*dA*dA*d[5mC]*eA*eG*eT*eA*eT; antisense) [compound 546867]
- % inhibition [7]: 40%

Substance: 547758 (antisense e[5mC]*e[5mC]*eA*eA*eG*dT*dA*dG*dT*dG*d[5mC]*dA*dA*dG*dG*e[5mC]*eA*eT*eG*eT) [compound 547758]
- % inhibition [5]: 24%

Substance: 546977 (eG*eT*e[5mC]*e[5mC]*e[5mC]*dG*dA*dA*dG*dA*dG*dT*d[5mC]*dA*dA*eG*eT*e[5mC]*e[5mC]*eA; antisense) [compound 546977]
- % inhibition [8]: 76%

Substance: 547629 (antisense eA*e[5mC]*eT*e[5mC]*eT*dA*d[5mC]*d[5mC]*dT*dA*dT*dA*dA*d[5mC]*dT*e[5mC]*eT*eA*eA*e[5mC]) [compound 547629]
- % inhibition [1]: 0%

Substance: 548764 (antisense eT*eA*eT*e[5mC]*dA*d[5mC]*dT*dG*dT*d[5mC]*d[5mC]*dT*dA*eT*eA*eA*e[5mC]) [compound 548764]
- % inhibition [3]: 31%

Substance: 546141 (eG*eA*eA*eA*eT*dA*dA*dG*dT*dT*dG*d[5mC]*dT*dT*dG*e[5mC]*eT*eT*eG*eA; antisense) [compound 546141]
- % inhibition [2]: 56%

Substance: 548748 (antisense eG*eT*eA*e[5mC]*dT*dA*dG*dT*dT*dT*d[5mC]*d[5mC]*dT*dA*eT*eA*eA*e[5mC]) [compound 548748]
- % inhibition [3]: 0%

Substance: 547365 (eT*eG*eA*eG*eA*dA*d[5mC]*d[5mC]*d[5mC]*dT*dG*dG*d[5mC]*dA*dA*e[5mC]*eA*eT*e[5mC]*e[5mC]; antisense) [compound 547365]
- % inhibition (Table 7, HepaRG cells, electroporation with 5,000 nM antisense oligonucleotide, approx. 24 hours, PKK mRNA by RT-PCR (RTS3454), relative to untreated control cells): 81%

Substance: 546212 (antisense eA*eG*eA*eT*eG*d[5mC]*dT*dG*dG*dA*dA*dG*dA*dT*dG*eT*eT*e[5mC]*eA*eT) [compound 546212]
- % inhibition [4]: 48%

Substance: 546994 (eG*eT*eT*e[5mC]*eA*dT*dG*dT*dG*dG*d[5mC]*dA*dA*d[5mC]*d[5mC]*eT*eG*eT*eG*eA; antisense) [compound 546994]
- % inhibition [8]: 58%

Substance: 547714 (antisense e[5mC]*eT*eG*eT*e[5mC]*dT*dA*dA*d[5mC]*dT*dG*dG*d[5mC]*d[5mC]*dT*eG*eG*e[5mC]*eT*eG) [compound 547714]
- % inhibition [8]: 19%

Substance: 548718 (DNA eT*eA*e[5mC]*dT*dA*dG*dT*dT*dT*d[5mC]*d[5mC]*dT*dA*eT*eA*eA*e[5mC]; antisense) [compound 548718]
- % inhibition (HepaRG cells, 5,000 nM antisense oligonucleotide, human PKK mRNA, Table 18): 0%

Substance: 547433 (eG*eT*e[5mC]*e[5mC]*e[5mC]*d[5mC]*dA*dG*dT*dG*dT*dT*dA*d[5mC]*dA*e[5mC]*eA*eA*eT*e[5mC]; antisense) [compound 547433]
- % inhibition [9]: 63%

Substance: 546419 (eT*eT*e[5mC]*eT*eA*dA*dT*dG*dT*dG*dG*d[5mC]*dA*d[5mC]*dT*eG*e[5mC]*eA*eG*eG; antisense) [compound 546419]
- % inhibition [10]: 65%

Substance: 546330 (antisense eT*eT*eT*e[5mC]*eT*d[5mC]*d[5mC]*dT*dT*d[5mC]*dG*dA*dG*dA*dA*eG*e[5mC]*e[5mC]*e[5mC]*e[5mC]) [compound 546330]
- % inhibition [11]: 55%
- % inhibition [12]: 67%

Substance: 547346 (antisense eA*e[5mC]*e[5mC]*eT*eT*dA*dG*dA*d[5mC]*dA*d[5mC]*dA*dT*dT*dA*eA*eA*eA*eT*eT) [compound 547346]
- % inhibition [4]: 57%

Substance: 546763 (eG*e[5mC]*eT*eT*e[5mC]*d[5mC]*d[5mC]*d[5mC]*dA*dA*dT*dA*d[5mC]*dT*dT*eG*e[5mC]*eT*eG*eG; antisense) [compound 546763]
- % inhibition (Table 13, human PKK mRNA in HepaRG cells, 5-10-5 gapmers): 84%

Substance: 547301 (antisense eT*e[5mC]*eA*eT*eT*dG*dA*dT*dT*dG*dA*dA*d[5mC]*dT*dT*eG*e[5mC]*eT*eG*eG) [compound 547301]
- % inhibition [2]: 80%

Substance: 547361 (eG*e[5mC]*eA*eA*e[5mC]*d[5mC]*dA*dA*dT*dT*dT*d[5mC]*dT*dG*dA*eA*eA*eG*eG*eG; antisense) [compound 547361]
- % inhibition [4]: 46%

Substance: 546914 (eA*eT*eA*eT*e[5mC]*dA*d[5mC]*dT*dG*dT*dA*d[5mC]*d[5mC]*dT*dA*eT*eA*eT*e[5mC]*eA; antisense) [compound 546914]
- % inhibition [8]: 52%

Substance: 546497 (e[5mC]*eA*eT*eG*e[5mC]*dA*dT*dA*d[5mC]*dT*d[5mC]*dG*d[5mC]*d[5mC]*dT*eT*eT*eG*eT*eG; antisense) [compound 546497]
- % inhibition [10]: 56%

Substance: 547513 (antisense eT*eG*e[5mC]*eA*eG*dA*dT*dG*dA*dG*dG*dA*d[5mC]*d[5mC]*d[5mC]*e[5mC]*e[5mC]*e[5mC]*eA*eG) [compound 547513]
- % inhibition [6]: 72%

Substance: 546863 (eT*eA*eA*e[5mC]*eT*dA*dT*dA*dA*d[5mC]*dA*dA*dT*dA*dT*e[5mC]*eA*e[5mC]*eT*eG; antisense) [compound 546863]
- % inhibition [7]: 21%

Substance: 546196 (antisense e[5mC]*eA*e[5mC]*eT*eG*d[5mC]*dT*dA*dA*d[5mC]*d[5mC]*dT*dT*dA*dG*eA*e[5mC]*eA*e[5mC]*eA) [compound 546196]
- % inhibition [4]: 83%

Substance: 547304 (antisense e[5mC]*eT*eT*eT*eT*d[5mC]*dT*d[5mC]*d[5mC]*dA*dT*dG*dT*d[5mC]*dA*eT*eT*eG*eA*eT) [compound 547304]
- % inhibition [2]: 71%

Substance: 546311 (antisense e[5mC]*eA*eT*eG*eA*dT*dT*d[5mC]*d[5mC]*d[5mC]*dT*dT*d[5mC]*dT*dG*eA*eG*eA*e[5mC]*eT) [compound 546311]
- % inhibition [11]: 79%
- % inhibition [12]: 76%

Substance: 546381 (antisense eG*eA*eA*eG*eA*dT*dG*d[5mC]*d[5mC]*dA*d[5mC]*dT*d[5mC]*dT*d[5mC]*e[5mC]*eA*eT*eG*e[5mC]) [compound 546381]
- % inhibition [6]: 73%

Substance: 546265 (eG*eT*e[5mC]*eT*eT*d[5mC]*dT*dG*dG*dG*dA*dG*dT*dA*dA*eA*eG*eA*eA*eT; antisense) [compound 546265]
- % inhibition [9]: 65%

Substance: 546492 (e[5mC]*eT*e[5mC]*eG*e[5mC]*d[5mC]*dT*dT*dT*dG*dT*dG*dA*d[5mC]*dT*e[5mC]*eG*eA*eT*eT; antisense) [compound 546492]
- % inhibition [10]: 61%

Substance: 547699 (antisense eT*eA*e[5mC]*e[5mC]*eT*dA*dT*dA*dA*d[5mC]*dT*dA*dT*dA*dA*e[5mC]*eA*eA*eT*eA) [compound 547699]
- % inhibition [8]: 10%

Substance: 546710 (eG*eA*eA*eG*e[5mC]*d[5mC]*dT*dG*dT*dT*dA*dG*dA*dG*dT*eT*eG*eG*e[5mC]*e[5mC]; antisense) [compound 546710]
- % inhibition [10]: 73%

Substance: 547545 (antisense eA*eT*eA*e[5mC]*eT*d[5mC]*dG*d[5mC]*d[5mC]*dT*dT*dT*dG*dT*dG*eA*eT*eG*e[5mC]*eG) [compound 547545]
- % inhibition [10]: 43%
